# Results: ChEMBL document CHEMBL1125413 (J Med Chem, 1992)
# pIC50: −log10 of the molar value.
# Key:
# [1] = molecular target: T1, Sodium-dependent dopamine transporter (Rattus norvegicus, UniProt P23977); assay: Inhibition of [3H]mazindol binding to the dopamine transporter.
# [2] = molecular target: T1, Sodium-dependent dopamine transporter; assay: Inhibition of [3H]cocaine binding to the dopamine transporter.
# [3] = molecular target: T1, Sodium-dependent dopamine transporter; assay: Potency for the inhibition of [3H]WIN-35428 binding to the dopamine transporter
# [4] = molecular target: T1, Sodium-dependent dopamine transporter; assay: Inhibition of [3H]-dopamine uptake at dopamine transporter.
# [5] = molecular target: T1, Sodium-dependent dopamine transporter; assay: Inhibition of [3H]BTCP binding to the dopamine transporter.
# [6] = molecular target: T1, Sodium-dependent dopamine transporter; assay: Inhibition of [3H]WIN-35428 binding to the dopamine transporter
# [7] = molecular target: T1, Sodium-dependent dopamine transporter; assay: Inhibition of dopamine uptake at dopamine transporter.
# [8] = molecular target: T1, Sodium-dependent dopamine transporter
# [9] = molecular target: T1, Sodium-dependent dopamine transporter; assay: Inhibition of [3H]dopamine uptake at dopamine transporter.
# [10] = molecular target: T1, Sodium-dependent dopamine transporter; remark: listed apart in the source
# [11] = molecular target: T1, Sodium-dependent dopamine transporter; assay: Inhibition of [3H]dopamine uptake at the dopamine transporter.
# [12] = molecular target: T1, Sodium-dependent dopamine transporter; assay: Inhibition of [3H]GBR-12935 binding to the dopamine transporter.
# [13] = molecular target: T1, Sodium-dependent dopamine transporter; remark: listed apart in the source
# T1 sequence (P23977 whole entry): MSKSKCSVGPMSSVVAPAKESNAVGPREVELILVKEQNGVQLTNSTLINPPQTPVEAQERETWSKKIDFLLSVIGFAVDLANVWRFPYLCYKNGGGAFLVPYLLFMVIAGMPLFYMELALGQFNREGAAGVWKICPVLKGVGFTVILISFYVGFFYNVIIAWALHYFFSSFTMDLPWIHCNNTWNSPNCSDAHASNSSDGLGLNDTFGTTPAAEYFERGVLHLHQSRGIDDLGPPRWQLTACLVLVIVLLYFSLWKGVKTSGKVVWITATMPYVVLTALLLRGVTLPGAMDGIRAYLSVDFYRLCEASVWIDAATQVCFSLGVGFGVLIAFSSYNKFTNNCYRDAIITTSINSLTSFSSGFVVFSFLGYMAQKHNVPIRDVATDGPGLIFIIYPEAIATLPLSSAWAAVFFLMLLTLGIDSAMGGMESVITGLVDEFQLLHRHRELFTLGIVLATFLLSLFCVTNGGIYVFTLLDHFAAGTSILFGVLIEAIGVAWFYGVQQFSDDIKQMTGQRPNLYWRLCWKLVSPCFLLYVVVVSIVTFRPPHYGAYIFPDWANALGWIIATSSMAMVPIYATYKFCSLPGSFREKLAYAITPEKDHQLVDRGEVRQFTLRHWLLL
smiles,measurement,setting,value
COC(=O)C1C2CC[C@H](C[C@@H]1O)N2C (stereo in doubt; 18),pIC50,[1],4.21
O=C(O[C@H]1C[C@H]2CCC(N2)C1C(=O)O)c1ccccc1 (stereo partly specified),pIC50,[2],4.11
same,pIC50,[1],3.47
COC(=O)C1C2CC[C@H](C[C@@H]1OC(=O)c1ccccc1)[N+]2(C)C (stereo partly specified),pIC50,[3],4.97
same,pIC50,[4],7.85
same,pIC50,[5],8.10
same,pIC50,[1],4.70
COC(=O)[C@@H]1C2CC[C@H](C[C@@H]1c1ccc(N=[N+]=[N-])cc1)N2C,pIC50,[6],8.70
same,pIC50,[7],6.70
COC(=O)C1C2CC[C@H](C[C@@H]1c1ccccc1)N2 (stereo partly specified),pIC50,[1],6.44
same,pIC50,[8],7.07
COC(=O)[C@@H]1C2CC[C@H](C[C@@H]1c1ccccc1)N2C (stereo in doubt; 50),pIC50,[8],4.49
same,pIC50,[9],3.70
CN1C2CC[C@@H]1C[C@H](OC(=O)c1ccc(N)cc1)C2C(=O)O (stereo partly specified),pIC50,[3],5.08
same,pIC50,[4],7.46
same,pIC50,[1],5.35
same,pIC50,[10],8.05
COC(=O)C1C2CC[C@H](C[C@@H]1OC(=O)c1ccccc1)N2 (stereo in doubt; 22),pIC50,[3],6.52
same,pIC50,[1],5.92
same,pIC50,[10],7.04
same,pIC50,[8],6.38
CN1C2CC[C@@H]1C[C@H](c1ccc(Cl)cc1)C2C(=O)OCCc1ccc(N=[N+]=[N-])c(I)c1 (stereo partly specified),pIC50,[9],5.85
CC[C@H](C)[C@H](NC(=O)[C@@H](NC[C@H](CC(C)C)NC(=O)[C@H](Cc1c[nH]cn1)NC(=O)[C@H](Cc1ccccc1)NC(=O)[C@]1(C)CCCN1C(=O)OC(C)(C)C)C(C)C)C(=O)NCc1ccccn1,pIC50,[4],7.54
same,pIC50,[1],6.75
same,pIC50,[10],7.03
same,pIC50,[9],5.61
COC(=O)[C@@H]1C2CC[C@H](C[C@@H]1c1ccccc1)N2C,pIC50,[3],6.25
CN1[C@@H]2CC[C@H]1C[C@H](OC(=O)c1ccccc1)C2,pIC50,[2],5.48
same,pIC50,[1],4.82
same,pIC50,[7],3.73
same,pIC50,[11],3.96
same,pIC50,[8],4.64
COC(=O)C1C2CC[C@H](C[C@@H]1O)N2C (stereo in doubt; 31),pIC50,[1],4.06
COC(=O)[C@@H]1C2CC[C@H](C[C@@H]1c1ccccc1)N2C (stereo in doubt; 70),pIC50,[2],5.92
same,pIC50,[7],5.68
COC(=O)C1C2CC[C@H](C[C@@H]1c1ccc(Cl)cc1)N2C (stereo partly specified),pIC50,[1],8.70
same,pIC50,[6],9.00
same,pIC50,[7],7.52
COC(=O)C1C2CC[C@H](C[C@H]1c1ccc(C)cc1)N2C (stereo partly specified),pIC50,[3],8.70
same,pIC50,[1],8.30
same,pIC50,[9],6.96
COC(=O)C1C2CC[C@H](C[C@@H]1OC(=O)c1cccc(N=C=S)c1)N2C (stereo partly specified),pIC50,[3],5.84
same,pIC50,[10],7.14
COC(=O)[C@@H]1C2CC[C@H](C[C@@H]1c1ccc(N)cc1)N2C,pIC50,[2],6.72
same,pIC50,[7],6.25
CN1C2CC[C@@H]1C[C@H](OC(=O)c1ccccc1)C2C(=O)OCCc1ccc(N)cc1 (stereo partly specified),pIC50,[6],7.15
COC(=O)C1C2CC[C@H](C[C@@H]1c1ccc(F)cc1)N2 (stereo partly specified),pIC50,[8],7.44
COC(=O)[C@@H]1C2CC[C@H](C[C@@H]1c1ccccc1)N2C (stereo in doubt; 47),pIC50,[1],6.92
same,pIC50,[8],7.36
same,pIC50,[9],6.02
COC(=O)C1C2CC[C@H](C[C@@H]1OC(=O)c1ccc(N=[N+]=[N-])c(I)c1)N2C (stereo partly specified),pIC50,[9],6.10
C=CCN1C2CC[C@@H]1C[C@H](OC(=O)c1ccccc1)C2C(=O)OC (stereo partly specified),pIC50,[8],5.99
same,pIC50,[9],5.60
CNC(=O)C1C2CC[C@H](C[C@@H]1OC(=O)c1ccccc1)N2C (stereo partly specified),pIC50,[4],5.70
COC(=O)[C@@H]1C2CC[C@H](C[C@@H]1c1ccccc1)N2C (stereo in doubt; 49),pIC50,[8],7.66
same,pIC50,[9],5.88
COC(=O)C1C2CC[C@H](C[C@@H]1OC(=O)c1ccc(N=C=S)cc1)N2C (stereo partly specified),pIC50,[3],5.98
same,pIC50,[10],6.56
same,pIC50,[9],5.56
COC(=O)C1C2CC[C@H](C[C@@H]1c1ccc(I)cc1)N2C (stereo partly specified),pIC50,[3],9.00
COC(=O)C1C2CC[C@H](C[C@@H]1OC(=O)Nc1cccc([N+](=O)[O-])c1)N2C (stereo partly specified),pIC50,[10],6.48
same,pIC50,[8],7.43
same,pIC50,[9],6.75
COC(=O)C1C2CC[C@H](C[C@@H]1OC(=O)c1ccccc1)N2 (stereo in doubt; 23),pIC50,[8],6.57
same,pIC50,[9],5.60
COC(=O)C1C2CC[C@H](C[C@@H]1OC(=O)c1ccccc1)N2Cc1ccccc1 (stereo partly specified),pIC50,[2],7.70
same,pIC50,[5],6.85
same,pIC50,[6],6.18
same,pIC50,[12],6.60
same,pIC50,[9],7.11
COC(=O)[C@@H]1C2CC[C@H](C[C@@H]1c1ccccc1)N2C (stereo in doubt; 68),pIC50,[2],5.59
same,pIC50,[1],3.41
same,pIC50,[6],5.54
c1ccc2sc(C3(N4CCCCC4)CCCCC3)cc2c1,pIC50,[5],8.30
same,pIC50,[13],8.70
same,pIC50,[10],7.70
same,pIC50,[8],7.38
COC(=O)C1C2CC[C@H](C[C@@H]1OC(=O)c1ccc(N)cc1)N2C (stereo partly specified),pIC50,[3],5.91
same,pIC50,[1],5.52
CN1C2CC[C@@H]1C[C@H](O)C2C(=O)O (stereo partly specified),pIC50,[1],< 3.00
same,pIC50,[10],8.33
